In US12497396B2, “Nitrogen-containing heterocyclic derivatives, method therefor and application therefor as inhibitors of KRAS G12C for the treatment of cancers” (SHANGHAI HANSOH BIOMEDICAL CO., LTD., priority 2019, dated 2025):

How the values were obtained:
[1] = system: Mia PaCa-2 cells (KRAS G12C mutant cell line); assay: Inhibition of Mia PaCa-2 cell proliferation (CellTiter-Glo, 72 h); format: cell-based, human; conditions: Homo sapiens
Method in brief: (§1)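 Cells were seeded overnight at 37 °C, 5% CO2, then exposed to serially diluted compound (DMSO/medium) alongside a solvent control for 72 h. Viability was read by CellTiter-Glo luminescence, and IC50 was derived by nonlinear regression of inhibition rate against concentration.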

human KRAS G12C protein = target: T1, human KRAS G12C protein (Homo sapiens, UniProt P01116, G12C); assay: Thermal shift: melting temperature of KRAS G12C protein; format: binding
T1 construct: purchased Beijing SinoBiological Co., Ltd. 12259-H07E2
Method in brief: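 5.37 μM (final) human KRAS G12C in […] HEPES pH 7.5, 1 mM DTT, 150 mM NaCl, 5×SYPRO Orange, incubated 1 h at room temperature in the dark. Melt curve run from 25 to 95° C at 0.03° C/s. ΔTm = treated Tm minus DMSO control Tm.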

[2] = system: phosphorylated ERK in KRAS G12C mutant cells Mia PaCa-2; assay: Inhibition of phosphorylated ERK level in Mia PaCa-2 cells (LANCE Ultra); format: cell-based; conditions: Homo sapiens, 2 hours, read-out: Mia PaCa-2 pERK IC50
Source text: As a preferred embodiment of the present disclosure, the method for detecting the inhibitory activity of phosphorylated ERK level is as follows: through cell culture, adding different concentrations of compound solutions to the cultured cells, continuing the culture for a period of time, lysing the cells, followed by centrifugation and […]; • further, the method of cell culture is: adjusting the cells to a suitable cell concentration with a complete medium, preferably the cell concentration is 1×10^6/mL, and spreading the cell suspension on a well plate for culture.
When Mia PaCa-2 cells were cultured to the appropriate fusion level, Mia PaCa-2 cells were collected, and the cell density was adjusted to 1×10^6/mL using complete culture medium, the cell suspension was spread on a 96-well plate, 50 μL per well, and placed adherent to the wall in a 37° C., 5% CO2 incubator overnight, compound solutions with different concentrations were prepared using DMSO and complete culture medium, a solvent control was set, the compound solution was added to a 96-well plate, 25 μL per well, and placed in a 37° C., 5% CO2 incubator for 2 hours of continuous culture, the supernatant was discarded from the cell culture plate, 50 μL of lysis solution was added to each well, and lysing was performed for 30 minutes by shaking at room temperature, then the mixture was centrifuged at 1000 rpm for 1 minute, 15 μL of supernatant was transferred to 384 well plate, 5 μL of detection mixture (Eu-labeled anti-ERK1/2 (T202-Y204) antibody with final concentration of 0.5 nM and ULight labeled anti-ERK1/2 antibody with final concentration of 5 nM) was added to each well, centrifuged at 1000 rpm for 1 minute and mixed uniformly, the reaction was carried out overnight at room temperature, the plate was read with BioTek Synergy H1, and the signal values was detected at 620 nm and 665 nm emission wavelengths by time-resolved fluorescence program.
The ratio of the signal values at 665 nm and 620 nm emission wavelength were calculated, and the ratio was used to calculate the inhibition rate, the concentration and the inhibition rate were fitted to a nonlinear regression curve using Graphpad Prism software, then the IC50 value was obtained.

[3] = system: NCI-H358 cells (KRAS G12C mutant cell line); assay: Inhibition of NCI-H358 cell proliferation (CellTiter-Glo, 72 h); format: cell-based, human; conditions: Homo sapiens
Method in brief: as §1

In the case of C=CC(=O)N1CCN(c2nc(=O)n(-c3c(SC)ccnc3C(C)C)c3nc(-c4c(N)cccc4F)c(F)cc23)[C@@H](C)C1 [Embodiment 134, 4-((S)-4-acryloyl-2-methylpiperazin-1-yl)-7-(2-amino-6-fluorophenyl)-6-fluoro-1-(2-isopropyl-4-(methylthio)pyridin-3-yl) pyrido [2,3-d] pyrimidin-2 (1H)-one], the IC50 [1] is reported as 30 nM, the “Tm (° C.)” value (human KRAS G12C protein; KRAS G12C protein 5.37 μM with compound 10 μM, 1 hour incubation) is reported as 64.4 °C and the ΔTm at 10 µM (human KRAS G12C protein; compound 10 μM, Tm minus Tm of DMSO solvent control) is reported as 15.8 °C. For the same compound, the IC50 [2] was 30 nM and the IC50 [3] was 23 nM.
